pIC50: −log10 of the molar value. Active and inactive are the calls of the source. The rule behind the calls is not given here.

The test system of this assay is luminescent cytotoxicity (cell viability) counter-screen. The assay can be described thus: cytotoxicity of Gli-SUFU antagonist hits, dose response, cytotoxicity control for Gli-SUFU antagonist project, cell-based, luminescence, uHTS hits (AID 651569).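 Note: compound exposure lasted overnight before the viability readout.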
On to `c1ccc(-c2cn(-c3ccccc3)c3[n+]2CCS3)cc1`, for which the IC50 was > 20 µM (inactive).
`CCn1c(/C=C/Nc2ccccc2)[n+](CC)c2ccc(Cl)cc21`: the IC50 was > 20 µM (inactive).
With `O=C(C[C@H]1C/C=C\C[C@H](NC(=O)OCC2c3ccccc3-c3ccccc32)C(=O)OC[C@@H]2CCCN2C1=O)N[C@H](CO)Cc1ccccc1`, the IC50 was > 20 µM (inactive).
On the same count and under the same terms, then `O=C(C[C@H]1C/C=C\C[C@@H](NC(=O)OCC2c3ccccc3-c3ccccc32)C(=O)O[C@@H](c2ccccc2)CNC1=O)N[C@H](CO)Cc1ccccc1`, with > 20 µM (inactive); and `CC(NC(=O)c1cc2c(=O)n3ccccc3nc2n(CC2CCCO2)c1=N)c1ccccc1` (configuration not stated), with > 20 µM (inactive); and `Cc1ccc(C)c(N2CC(O)(c3cccs3)[N+]3=C2CCCC3)c1` (configuration not stated), with > 20 µM (inactive).
Turning to `FC(F)Oc1ccc(-c2c[n+]3c(n2-c2ccccc2)CCCCC3)cc1`, the IC50 was > 20 µM (inactive).
Turning to `COc1ccccc1NS(=O)(=O)c1cccc(C(=O)NC2CCN(Cc3ccccc3)CC2)c1`, the IC50 is > 20 µM (inactive).
For `CCC(C)CCN1C(N(C)C)=NC[C@@H]1CC(C)C` (some centres not stated), the IC50 was > 20 µM (inactive).
For the compound `CCCc1nc(SCC(=O)Nc2nnc(CC)s2)c2c(=O)n(C)c(=O)n(C)c2n1`, the IC50 is > 20 µM (inactive).
As for `CC(=O)c1c(C)[nH]c(C(=O)OCC(=O)Nc2ccc(C)cc2[N+](=O)[O-])c1C`, the negative logarithm of the IC50 (pIC50) was 4.72.
Take `O=C(NCCc1cccc(Cl)c1)c1ccc(OC2CCN(Cc3ccccn3)CC2)cc1`: the IC50 is > 20 µM (inactive).
The same measure, in the same setting: then `CCCCCn1c(=N)n(CC(O)COc2ccccc2OC)c2ccccc21` (configuration not stated), with > 20 µM (inactive); and `CCc1ccc(CN(C)C(=O)c2cc(COc3cccc4cnccc34)on2)cc1`, with > 20 µM (inactive).
Take `Cc1ccc(Cl)cc1N1CCN(C(=O)CSc2nnc3n2C(C)(C)Cc2ccccc2-3)CC1`: the IC50 is > 20 µM (inactive).
The same measure, in the same setting: then `COc1cc(C(=O)NC2CCN(C)CC2)ccc1Nc1ncc2c(n1)N(Cc1ccccc1)CCC(=O)N2C`, with > 20 µM (inactive); and `C[N+]1=C(/C=C/Nc2ccccc2)C(C)(C)c2ccccc21`, with > 20 µM (inactive).
Consider `CC(C)C(=O)NC(=S)/C=C1/N(C)c2ccccc2C1(C)C`, for which the IC50 is > 20 µM (inactive).
For `CCCCOc1ncnc2c1[nH]c1ccc(F)cc12`, the IC50 was > 20 µM (inactive).
On to `Cc1ccsc1CNc1ncnc2ccc(-c3c(C)noc3C)cc12`, for which the IC50 was > 20 µM (inactive).
For `Clc1ccc(-n2cc(-c3ccc(Br)cc3)[n+]3c2CCCCC3)cc1`, the IC50 is > 20 µM (inactive).
With `Cc1cc(Nc2ccc([N+](=O)[O-])cc2)c2ccccc2n1`, the IC50 is > 20 µM (inactive).
Take `O=C(NC1CCCC1)c1cc(COc2ccc3ncccc3c2)on1`: the IC50 was > 20 µM (inactive).
The same measure, in the same setting: then `Cc1sc2ncnc(NCC3COc4ccccc4O3)c2c1C` (configuration not stated), with > 20 µM (inactive); and `Nc1ccc(Br)cc1-c1nc2ccccc2[nH]c1=O`, with > 20 µM (inactive); and `COc1ccc(CN(C)C(=O)c2cccc(NC(=O)CC3SC(N4CCCCC4)=NC3=O)c2)c(OC)c1` (configuration not stated), with > 20 µM (inactive).
`c1ccc(Cn2c(-c3ccccc3)c[n+]3c2SCCC3)cc1`: the IC50 was > 20 µM (inactive).
For `O=C(c1ccc(C(F)(F)F)cc1)C1CCCN(Cc2ccncc2)C1` (configuration not stated), the negative logarithm of the IC50 (pIC50) is 4.74.
On to `COCCn1c(CN2CCC(Cc3ccccc3)CC2)nc2c1c(=O)n(C)c(=O)n2C`, for which the IC50 is > 20 µM (inactive).
The same measure, in the same setting: then `CCn1c(=NC(=O)CCS(=O)(=O)c2ccccc2)sc2cccc(OC)c21`, with > 20 µM (inactive); and `Cc1nc2cc(N3CCN(C)CC3)c(NC(=O)Cc3ccccc3)cc2c(=O)n1Cc1ccccc1`, with > 20 µM (inactive).
Take `CC1C(OC(=O)CCC(=O)NC(C)(C)CO)O[C@H]2OC3(C)CC[C@H]4[C@H](C)CCC1C24OO3` (some centres not stated): the IC50 was > 20 µM (inactive).
Turning to `Cc1nn(C)c(C(=O)NCc2ccc(Cl)cc2)c1Cl`, the IC50 is > 20 µM (inactive).
As for `O=C(Nc1cc2c3c(c1)C1CCCC1CN3CC1CCCC21)c1ccc([N+](=O)[O-])cc1` (configuration not stated), the IC50 was > 20 µM (inactive).
For the compound `CCCCCCC[N+](CC)(CC)CCCCc1ccc(Cl)cc1`, the IC50 is > 20 µM (inactive).
Still for that read-out and setting: with `COc1ccc(NS(=O)(=O)c2ccc(NC(C)=O)cc2)cc1OC` the figure was > 20 µM (inactive); with `CCCCCCCOc1ccc(OC(=O)c2cccnc2)cc1`, > 20 µM (inactive).
For `Cc1ccc(NCC(=O)Nc2cccc(S(=O)(=O)N(C)C)c2)cc1S(=O)(=O)N1CCCCCC1`, the IC50 was > 20 µM (inactive).
Take `Cc1nnsc1C(=O)NC1CCCc2c1cnn2-c1ccc(F)cc1F` (configuration not stated): the IC50 is > 20 µM (inactive).
Still for that read-out and setting: with `O=C(N/N=C/c1cc2ccccc2nc1Cl)[C@H]1C[C@@H]1c1ccccc1` the figure was > 20 µM (inactive); with `Cc1cc(C)nc(SCC(=O)Nc2ccc(N3CCOCC3)c(Cl)c2)n1`, > 20 µM (inactive).
Take `O=C(c1cc(COc2cccc3cnccc23)on1)N1CCCC(CCCO)C1` (configuration not stated): the IC50 is > 20 µM (inactive).
On to `CCN(CC)S(=O)(=O)c1ccc(C)c(NC(=S)N2CCN(Cc3ccc4c(c3)OCO4)CC2)c1`, for which the IC50 was > 20 µM (inactive).
Take `COc1ccc(C(C(=O)NC2CCCCC2)N(C(=O)CCl)c2ccc(Cl)cc2)cc1` (configuration not stated): the pIC50 is 5.31.
For the compound `O=C(Cn1cc(C(=O)c2ccco2)c2ccccc21)Nc1ccccc1F`, the IC50 was > 20 µM (inactive).
In the case of `COc1ccc(NS(=O)(=O)c2ccc(N3CCN(CCO)CC3)c([N+](=O)[O-])c2)cc1`, the IC50 was > 20 µM (inactive).
For `Brc1ccc(-[n+]2c(-c3ccccc3)cc(-c3ccccc3)cc2-c2ccccc2)cc1`, the IC50 was > 20 µM (inactive).
`CCn1c(C)nc2cc(-c3nnc(-c4c(-c5ccccc5)noc4C)o3)ccc21`: the IC50 is > 20 µM (inactive).
Take `O=C(NC(c1cccnc1)C(F)(F)F)c1cc(COc2ccc3c(c2)CCCC3)on1` (configuration not stated): the IC50 is > 20 µM (inactive).
`CCC(C)NS(=O)(=O)c1ccc(S(=O)(=O)N2CCCC3(CCCCC3)C2)cc1` (configuration not stated): the IC50 is > 20 µM (inactive).
Consider `COc1ccc(CCNc2ncnc3c2oc2ccccc23)cc1OC`, for which the IC50 was > 20 µM (inactive).
As to `Cc1c(C(C)C)c(=O)n(-c2ccc(S(=O)(=O)NC3CCCCC3)cc2)n1C`, the negative logarithm of the IC50 (pIC50) is 5.03.
